Measured values: patent publication US20070166774A1, “Functional immunoassay” (priority 2006, published 2007)

System: antibody (anti-gadolinium-DTPA)
Assay: Immunoassay of gadolinium DTPA, standard curve (HRP-conjugate, microtiter plate)
Assay type: binding, rabbit
Method: White New Zealand rabbits were injected subcutaneously with 1 mg of antigen (1 mg/ml) in multiple sites on the rabbit's back according to the schedule in Table 2. The initial injection was prepared in Freund's complete adjuvant. All other injections were prepared in Freund's incomplete adjuvant. Coating polystyrene microtiter plates. Microtiter strips were coated with 200 ul of 10 ug/ml antibody solution diluted in 0.1 M carbonate buffer pH 9 and incubated overnight at room temperature. The coated plates were blocked with a phosphate buffered saline, pH 7.4 solution containing bovine serum (5 mg/ml) and dextrose 20 mg/ml) for 30 minutes, blotted dry and stored at 4° C. until used. All plates were used within 5 days of preparation. In a typical preparation the coating antibody was a goat anti-rabbit serum. HRP-conjugates. HRP-conjugates prepared as described in Example 11 were diluted between 1 to 100 and 1 to 1000 into phosphate buffered saline, pH 7.4 buffer containing bovine albumin (1 mg/ml). General immunoassay protocols for analytes were performed as follows. 100 μl of standard or serum sample was pipeted into appropriate wells in duplicate followed by 100 μl of antibody. To each well was added 200 μl of HRP-conjugate. After a 60 minute incubation at room temperature the wells were aspirated and washed three times with phosphate buffered saline, pH 7.4 containing (0.1% serum albumin and 0.01% Tween 20. To each well was added 200 ul of substrate solution and incubated for 30 minutes at room temperature. The development of color was stopped by the addition of 50 μl of stop solution. The wells were read using a microtiter plate reader. Standard curve data for gadolinium DTPA is shown in Table 3. Standard values were chosen specifically for this assay as shown in Table 3.

For `O=C([O-])CN(CCN(CC(=O)[O-])CC(=O)[O-])CCN(CC(=O)[O-])CC(=O)[O-].[Gd+3]` [Gadolinium DTPA, gadolinium DTPA], the “Optical density, 450 nm” value (Gadolinium DTPA concentration 1 × 10^−2 M) was 0.29, the “Optical density, 450 nm” value (Gadolinium DTPA concentration 1 × 10^−3 M) was 0.42 and the “Optical density, 450 nm” value (Gadolinium DTPA concentration 1 × 10^−4 M) was 0.48. The “Optical density, 450 nm” value (Gadolinium DTPA concentration 1 × 10^−5 M) was 0.57, the “Optical density, 450 nm” value (Gadolinium DTPA concentration 1 × 10^−6 M) was 0.58 and the “Optical density, 450 nm” value (Gadolinium DTPA concentration 5 × 10^−5 M) was 0.55. For the same compound, the “Optical density, 450 nm” value (Gadolinium DTPA concentration 5 × 10^−6 M) was 0.61.
